Test results: US10377744B2, “Potent soluble epdxide hydrolase inhibitors” (Eicosis, LLC, priority 2014, dated 2019)
In brackets after ≈: the same amount, converted by molar mass. Where two headings read alike, the source gives them in different places.

Columns and labels:
[1] = Experimental logP by HPLC method; format: physicochemical; details: for chromatographic logP: read-out: Exp. logP
[2] = Solubility in Acetate Buffer at pH 3; format: physicochemical; details: for solubility: aqueous buffer, read-out: Sol (ug/mL) at pH3
[3] = Solubility in Phosphate Buffer at pH 7.4; format: physicochemical; details: for solubility compared to sEH inhibitors with hydrophobic alkyl group at R7: in words
human sEH [4] = biological target: T1, human sEH (Homo sapiens (Human), UniProt P34913); test: FRET-displacement assay (Ki); format: binding; details: for Ki: affinity purified recombinant human sEH, FRET-displacement
T1 sequence (P34913 whole entry): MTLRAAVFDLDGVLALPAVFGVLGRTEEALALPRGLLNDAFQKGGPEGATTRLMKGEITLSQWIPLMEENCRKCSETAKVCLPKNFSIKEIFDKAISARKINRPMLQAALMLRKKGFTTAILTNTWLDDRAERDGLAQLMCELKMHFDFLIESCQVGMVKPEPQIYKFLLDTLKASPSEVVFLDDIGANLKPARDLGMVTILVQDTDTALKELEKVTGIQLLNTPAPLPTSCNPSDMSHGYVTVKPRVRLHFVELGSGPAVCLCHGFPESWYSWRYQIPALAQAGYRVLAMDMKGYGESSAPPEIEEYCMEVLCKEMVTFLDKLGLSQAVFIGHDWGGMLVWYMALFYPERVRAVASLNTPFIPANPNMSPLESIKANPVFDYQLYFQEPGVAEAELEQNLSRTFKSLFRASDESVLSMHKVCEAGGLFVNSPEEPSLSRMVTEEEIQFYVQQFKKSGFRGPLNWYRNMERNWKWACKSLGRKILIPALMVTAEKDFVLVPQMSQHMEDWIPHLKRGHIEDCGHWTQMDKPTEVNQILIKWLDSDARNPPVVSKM

[5] = pH titration of solubility; format: physicochemical; details: FIG. 9
PTZ induced seizure = test: Pentylenetetrazol (PTZ) induced seizure model; format: in vivo, mice
Description: To investigate the central nervous system penetration efficacy of sEH inhibitors a standard acute test involving the administration of pro-convulsant pentylenetetrazol (PTZ) was employed. In the subcutaneous pentylenetetrazol (PTZ) test 80 mg/kg of PTZ is administered by subcutaneous route, time to onset of first clonic seizure (clonus), time to tonic hind limb extension and lethality (tonus) are monitored for a duration of 30 min. Inhibitors of sEH were completely dissolved using PEG400 as a vehicle to give clear solutions. Inhibitors or vehicle were administered by intraperitoneal route 1 h prior to pro-convulsant at a single discriminating dose based on earlier data. This dose of PTZ produces 100% lethality within 30 min upon administration.
PTZ is a chemical which induces seizures. This assay is considered highly translatable from mice to humans.

human sEH [6] = biological target: T1, human sEH; test: koff measurement, enzymatic t1/2 (residence time); details: time for half of the drug to dissociate from recombinant affinity purified human sEH
[7] = HPLC method calibrated with eLogP of 4 selected inhibitors determined by shake-flask method

O=C(Nc1ccc(C(F)(F)F)c(F)c1)NC1CCN(C(=O)C2CCCOC2)CC1 (stereo not shown) [Compound 35, 1-(3-fluoro-4-(trifluoromethyl)phenyl)-3-(1-(tetrahydro-2H-pyran-3-carbonyl)piperidin-4-yl)urea]
chromatographic logP [1, 7]: 3.84

CC(C)C(=O)N1CCC(NC(=O)Nc2ccc(OC(F)(F)F)cc2)CC1 [Compound 2422, reference compound]
Exp. logP [1]: 3.56

CC[C@H](C)C(=O)N1CCC(NC(=O)Nc2ccc(OC(F)(F)F)c(Br)c2)CC1 [Compound 45]
chromatographic logP [1, 7]: 8.07

O=C(Nc1ccc(OC(F)(F)F)c(F)c1)NC1CCN(C(=O)C2CCCOC2)CC1 (stereo not shown) [Compound 27]
solubility ([2]; Acetate Buffer at pH 3): 522 µg/mL (≈ 1200 µM) | solubility at pH 3 compared to APAU ([2]; pH 3, in words): much better than the most soluble 1,3-disubstituted urea sEH inhibitors | solubility compared to sEH inhibitors with hydrophobic alkyl group at R7 [3]: remarkably enhance the solubility

CC[C@H](C)C(=O)N1CCC(NC(=O)Nc2ccc(OC(F)(F)F)c(C(F)(F)F)c2)CC1 [Compound 46, (S)-1-(1-(2-methylbutanoyl)piperidin-4-yl)-3-(4-(trifluoromethoxy)-3-(trifluoromethyl)phenyl)urea]
chromatographic logP [1, 7]: 9.02

CCOC(=O)N1CCC(NC(=O)Nc2ccc(OC(F)(F)F)c(F)c2)CC1 [Compound 40, ethyl 4-(3-(3-fluoro-4-(trifluoromethoxy)phenyl)ureido)piperidine-1-carboxylate]
chromatographic logP [1, 7]: 5.94

O=C(Nc1ccc(OC(F)(F)F)c(F)c1)Nc1ccc(OC(F)(F)F)c(F)c1 [Compound 38]
Ki (human sEH [4]): 1.95 ± 0.3 nM

CCC(=O)N1CCC(NC(=O)Nc2ccc(C(F)(F)F)c(F)c2)CC1 [Compound 31, 1-(3-fluoro-4-(trifluoromethyl)phenyl)-3-(1-propionylpiperidin-4-yl)urea]
chromatographic logP [1, 7]: 3.76

O=C(Nc1ccc(OC(F)(F)F)cc1)NC1CCN(C(=O)C2CCOCC2)CC1 [Compound 1, 1-(1-(tetrahydro-2H-pyran-4-carbonyl)piperidin-4-yl)-3-(4-(trifluoromethoxy)phenyl)urea]
chromatographic logP [1]: 3.26

CC[C@H](C)C(=O)N1CCC(NC(=O)Nc2ccc(OC(F)(F)F)c(F)c2)CC1 [Compound 26, (S)-1-(3-fluoro-4-(trifluoromethoxy)phenyl)-3-(1-(2-methylbutanoyl)piperidin-4-yl)urea]
chromatographic logP [1, 7]: 4.16

O=C(Nc1ccc(C(F)(F)F)c(F)c1)NC1CCN(C(=O)C2(C(F)(F)F)CC2)CC1 [Compound 36, 1-(3-fluoro-4-(trifluoromethyl)phenyl)-3-(1-(1-(trifluoromethyl)cycloproropane-1-carbonyl)piperidin-4-yl)urea]
Potency Enhancement (human sEH [4]; Ki of original inhibitor / Ki of meta-F substituted inhibitor): 1 | chromatographic logP [1, 7]: 5.52

2-(1-(cyclopropanecarbonyl)piperidin-4-yl)-N-(3-fluoro-4-(trifluoromethoxy)phenyl)acetamide [Compound 48]
Exp. logP [1]: 5.11

O=C(Nc1ccc(OC(F)(F)F)c(F)c1)NC1CCN(C(=O)N2CCC(NC(=O)Nc3ccc(OC(F)(F)F)c(F)c3)CC2)CC1 [Compound 39]
Ki (human sEH [4]): 10.1 ± 1.8 nM

O=C(Nc1ccc(OC(F)(F)F)c(F)c1)NC1CCN(C(=O)C2CCOCC2)CC1 [Compound 29, 1-(3-fluoro-4-(trifluoromethoxy)phenyl)-3-(1-(tetrahydro-2H-pyran-4-carbonyl)piperidin-4-yl)urea]
solubility ([2]; Acetate Buffer at pH 3): 206 µg/mL (≈ 475 µM) | solubility compared to sEH inhibitors with hydrophobic alkyl group at R7 [3]: remarkably enhance the solubility | chromatographic logP [1, 7]: 3.73 | solubility in pH titration [5]: increases dramatically when the pH is below 4 | onset of the tonic phase of seizure (PTZ induced seizure; 0.3 mpk, wild type Swiss mice, subcutaneous PTZ, p<0.05): delayed onset of the tonic phase of seizure | protection from convulsions and associated lethality (PTZ induced seizure; mice, PTZ 80 mg/kg subcutaneous, inhibitor 1 h prior): protect mice from convulsions and associated lethality

O=C(Nc1ccc(C(F)(F)F)cc1)NC1CCN(C(=O)c2cc[nH]c2)CC1 [Compound 16, 1-(1-(1H-pyrrole-3-carbonyl)piperidin-4-yl)-3-(4-(trifluoromethyl)phenyl)urea]
chromatographic logP [1, 7]: 3.26

CC[C@H](C)C(=O)N1CCC(NC(=O)Nc2ccc(OC(F)(F)F)c(Cl)c2)CC1 [Compound 44, (S)-1-(3-chloro-4-(trifluoromethoxy)phenyl)-3-(1-(2-methylbutanoyl)piperidin-4-yl)urea]
t1/2 (min) human sEH (human sEH [6]): 10 min | chromatographic logP [1, 7]: 7.7

O=C(Nc1ccc(OC(F)(F)F)c(F)c1)NC1CCN(C(=O)C2(C(F)(F)F)CC2)CC1 [Compound 30]
chromatographic logP [1, 7]: 5.94

1-(3-fluoro-4-(trifluoromethyl)phenyl)-3-(1-isobutyrylpiperidin-4-yl)urea [Compound 20]
Sol (ug/mL) at pH3 ([2]; Acetate Buffer at pH 3): 6 ug/mL

O=C(Nc1ccc(C(F)(F)F)c(F)c1)NC1CCN(C(=O)[C@@H]2CCOC2)CC1 [Compound 33, (R)-1-(3-fluoro-4-(trifluoromethyl)phenyl)-3-(1-(tetrahydrofuran-3-carbonyl)piperidin-4-yl)urea]
chromatographic logP [1, 7]: 3.41

Cc1occc1C(=O)N1CCC(NC(=O)Nc2ccc(OC(F)(F)F)cc2)CC1 [Compound 6, 1-(1-(2-methylfuran-3-carbonyl)piperidin-4-yl)-3-(4-(trifluoromethoxy)phenyl)urea]
chromatographic logP [1]: 4.3

O=C(Nc1ccc(C(F)(F)F)c(F)c1)NC1CCN(C(=O)C2CCOCC2)CC1 [Compound 37, 1-(3-fluoro-4-(trifluoromethyl)phenyl)-3-(1-(tetrahydro-2H-pyran-4-carbonyl)piperidin-4-yl)urea]
chromatographic logP [1, 7]: 3.52

O=C(Nc1ccc(OC(F)(F)F)c(F)c1)NC1CCN(C(=O)N2CCOCC2)CC1 [Compound 43, 1-(3-fluoro-4-(trifluoromethoxy)phenyl)-3-(1-(morpholine-4-carbonyl)piperidin-4-yl)urea]
chromatographic logP [1, 7]: 3.93

CCOC(=O)N1CCC(NC(=O)Nc2ccc(C(F)(F)F)c(F)c2)CC1 [Compound 41, ethyl 4-(3-(3-fluoro-4-(trifluoromethyl)phenyl)ureido)piperidine-1-carboxylate]
chromatographic logP [1, 7]: 5.46

CC(C)C(=O)N1CCC(NC(=O)Nc2ccc(C(F)(F)F)cc2)CC1 [Compound 2389, reference compound]
Exp. logP [1]: 3.37

CC[C@H](C)C(=O)N1CCC(NC(=O)Nc2ccc(OC(F)(F)F)c(OC(F)(F)F)c2)CC1 [Compound 47]
chromatographic logP [1, 7]: 10.6

O=C(Nc1ccc(C(F)(F)F)cc1)NC1CCN(C(=O)C2=COCC2)CC1 [Compound 12, 1-(1-(4,5-dihydrofuran-3-carbonyl)piperidin-4-yl)-3-(4-(trifluoromethyl)phenyl)urea]
chromatographic logP [1, 7]: 3.37

O=C(Nc1ccc(C(F)(F)F)cc1)NC1CCN(C(=O)C2CCCOC2)CC1 (stereo not shown) [Compound 15, 1-(1-(tetrahydro-2H-pyran-3-carbonyl)piperidin-4-yl)-3-(4-(trifluoromethyl)phenyl)urea]
chromatographic logP [1, 7]: 3.41

O=C(Nc1ccc(C(F)(F)F)c(F)c1)NC1CCN(C(=O)C2CC2)CC1 [Compound 32, 1-(1-(cyclopropanecarbonyl)piperidin-4-yl)-3-(3-fluoro-4-(trifluoromethyl)phenyl)urea]
chromatographic logP [1, 7]: 3.94

O=C(Nc1ccc(OC(F)(F)F)c(F)c1)NC1CCN(C(=O)C2CC2)CC1 [Compound 24, 1-(1-(cyclopropanecarbonyl)piperidin-4-yl)-3-(3-fluoro-4-(trifluoromethoxy)phenyl)urea]
chromatographic logP [1]: 4.19

CC(=O)N1CCC(NC(=O)NC23CC4CC(CC(C4)C2)C3)CC1 [APAU, reference compound]
solubility ([3]; aqueous buffer, Phosphate Buffer at pH 7.4): 277 µg/mL (≈ 867 µM) | chromatographic logP [1]: 1.5
